Assay results: patent publication US10981862B2, “Physiological cooling compounds” (Symrise, Inc., priority 2015, dated 2021)

System: not given
Assay: not given
Settings: not given

Structure (SMILES) | melting point
CCCCCC(C)NC(=O)C(C)(C(C)C)C(C)C (stereo not drawn) [Compound B11] | 46.9 °C
CCCCC(CC)CNC(=O)C(C)(C(C)C)C(C)C (stereo not drawn) [Compound B13] | 82.5 °C
CC(C)C(C)(C(=O)NCC(C)(C)C)C(C)C [Compound B3] | 65.9 °C
CC(C)CC(C)NC(=O)C(C)(C(C)C)C(C)C (stereo not drawn) [Compound B9] | 83.7 °C
CC1CCC(C(C)C)C(C(=O)NCC(C)(C)C)C1 (stereo not drawn) [Compound A3] | 152.4 °C

System: not given
Assay: not given
Settings: amount of compound needed to produce a cooling sensation; cited from earlier work

Structure (SMILES) | Threshold
CCNC(=O)C1CC(C)CCC1C(C)C (stereo not drawn) [WS-3, reference compound] | 0.3 µg
CNC(=O)C1CC(C)CCC1C(C)C (stereo not drawn) [Methyl] | 1.1 µg

System: sensory panel
Assay: Sensory panel evaluation of cooling ability, 20 ppm aqueous solutions
Format: in vivo
Set-up: key to Peak cooling strength / Peak Strength: —: Not cooling under tested conditions
Settings: 20 ppm aqueous solution
Procedure: The new carboxamides A1-A15 and B1-B15 were evaluated for their cooling ability by a sensory panel. The evaluation included tasting the 20 ppm aqueous solutions of new carboxamides and rating their maximum cooling strength on a 1-10 scale. In addition, the time at which maximum cooling strength was reached, how long the maximum strength was observed (so called cooling plateau), and the longevity of cooling sensation were recorded. The FIGURE represents a typical cooling profile, using compound A1 as an example. The obtained results (table 2), were compared with two most commonly used commercial cooling compounds WS-3 and WS-23 which belong to the same class of N-alkyl carboxamides. While various methods exist for evaluation of cooling compounds, we have chosen the parameters that allow to assess the practical aspects of new compounds that reflect their potential value as commercial sensory ingredients.

Structure (SMILES) | Longevity of cooling sensation | Time to reach peak cooling
CCCCCC(C)NC(=O)C1CC(C)CCC1C(C)C (stereo not drawn) [Compound A11] | 15 min | 8 min
CCCCCCCNC(=O)C1CC(C)CCC1C(C)C (stereo not drawn) [Compound A10] | 19 min | 4 min
CCCCCCNC(=O)C(C)(C(C)C)C(C)C [Compound B8] | 17 min | 4 min
CNC(=O)C(C)(C(C)C)C(C)C [WS-23, reference compound] | 7 min | 2 min
CC(C)C(C)(C(=O)NCC(C)(C)C)C(C)C [Compound B3] | 15 min | 3 min
CC(C)CC(C)NC(=O)C(C)(C(C)C)C(C)C (stereo not drawn) [Compound B9] | 18 min | 4 min
CCCCCCCCNC(=O)C1CC(C)CCC1C(C)C (stereo not drawn) [Compound A12] | 10 min | 6 min
CCNC(=O)C1CC(C)CCC1C(C)C (stereo not drawn) [WS-3, reference compound] | 11 min | 2 min
CC1CCC(C(C)C)C(C(=O)NCC(C)(C)C)C1 (stereo not drawn) [Compound A3] | 22 min | 4 min

Same assay, conditions: 20 ppm aqueous solution; cooling plateau

Structure (SMILES) | Time period at peak cooling
CCCCCC(C)NC(=O)C1CC(C)CCC1C(C)C (stereo not drawn) [Compound A11] | 2 min
CCCCCCCNC(=O)C1CC(C)CCC1C(C)C (stereo not drawn) [Compound A10] | 1 min
CCCCCCNC(=O)C(C)(C(C)C)C(C)C [Compound B8] | 1 min
CNC(=O)C(C)(C(C)C)C(C)C [WS-23, reference compound] | 2 min
CC(C)C(C)(C(=O)NCC(C)(C)C)C(C)C [Compound B3] | 3 min
CC(C)CC(C)NC(=O)C(C)(C(C)C)C(C)C (stereo not drawn) [Compound B9] | 2 min
CCCCCCCCNC(=O)C1CC(C)CCC1C(C)C (stereo not drawn) [Compound A12] | 4 min
CCNC(=O)C1CC(C)CCC1C(C)C (stereo not drawn) [WS-3, reference compound] | 2 min
CC1CCC(C(C)C)C(C(=O)NCC(C)(C)C)C1 (stereo not drawn) [Compound A3] | 3 min

Same assay, conditions: 20 ppm aqueous solution; maximum cooling strength rated on a 1-10 scale

Structure (SMILES) | Peak cooling strength
CCCCCC(C)NC(=O)C1CC(C)CCC1C(C)C (stereo not drawn) [Compound A11] | 2
CCCCCCCNC(=O)C1CC(C)CCC1C(C)C (stereo not drawn) [Compound A10] | 5
CCC(C)(C)NC(=O)C(C)(C(C)C)C(C)C [Compound B1] | — ^a
CCCCCCNC(=O)C(C)(C(C)C)C(C)C [Compound B8] | 3
CNC(=O)C(C)(C(C)C)C(C)C [WS-23, reference compound] | 4
CC(C)C(C)(C(=O)NC(C)(C)CC(C)(C)C)C(C)C [Compound B15] | — ^a
CCCCCCCCNC(=O)C(C)(C(C)C)C(C)C [Compound B12] | — ^a
CCCCCC(C)NC(=O)C(C)(C(C)C)C(C)C (stereo not drawn) [Compound B11] | — ^a
CCCCCCCNC(=O)C(C)(C(C)C)C(C)C [Compound B10] | — ^a
CCCCC(CC)CNC(=O)C(C)(C(C)C)C(C)C (stereo not drawn) [Compound B13] | — ^a
CC(C)C(C)(C(=O)NCC(C)(C)C)C(C)C [Compound B3] | 3
CC(C)CC(C)NC(=O)C(C)(C(C)C)C(C)C (stereo not drawn) [Compound B9] | 5
CCCCCCCCNC(=O)C1CC(C)CCC1C(C)C (stereo not drawn) [Compound A12] | 2
CCNC(=O)C1CC(C)CCC1C(C)C (stereo not drawn) [WS-3, reference compound] | 5
CC1CCC(C(C)C)C(C(=O)NCC(C)(C)C)C1 (stereo not drawn) [Compound A3] | 7

Same assay, conditions: Table 4, repeats Table 2; 20 ppm aqueous solution, 1-10 scale

Structure (SMILES) | Peak Strength
CCCCCC(C)NC(=O)C1CC(C)CCC1C(C)C (stereo not drawn) [Compound A11] | 2
CCCCCCCNC(=O)C1CC(C)CCC1C(C)C (stereo not drawn) [Compound A10] | 5
CCCCCCCCNC(=O)C1CC(C)CCC1C(C)C (stereo not drawn) [Compound A12] | 2
CC1CCC(C(C)C)C(C(=O)NCC(C)(C)C)C1 (stereo not drawn) [Compound A3] | 7

Same assay, conditions: sensory panel results

Structure (SMILES) | Cooling properties, in words
CCC(C)(C)NC(=O)C(C)(C(C)C)C(C)C [Compound B1] | does not possess any cooling properties
